In one assay the test system is S. aureus. The experiment in a line: Antibacterial activity, minimal inhibitory concentration (MIC) against S. aureus. In kind it is cell-based. The following applies: Staphylococcus aureus. The source says:
Antibacterial activity as measured by the minimal inhibitory concentrations (MIC) and minimal bactericidal concentrations of compounds are well known (see., e.g., National Committee for Clinical Laboratory Standards 2000 Performance standards for antimicrobial disk susceptibility tests: approved standard, 7th ed. M2-A7, vol. 20, no. 1, Committee for Clinical Laboratory Standards, Wayne, Pa.)
In vitro testing for antibacterial activity may be accomplished through use of a whole-cell bacterial growth inhibition assay. For example, an […] assay identifies a substance that inhibits bacterial growth. Microtiter plates are prepared with serial dilutions of the test compound, adding to the preparation a given amount of growth substrate, and providing a preparation of bacteria. Inhibition of bacterial growth is determined, for example, by observing changes in optical densities of the bacterial cultures. Inhibition of bacterial growth is determined, for example, by comparing (in the presence and absence of a test compound) the rate of growth or the absolute growth of bacterial cells. Inhibition includes a reduction of one of the above measurements by at least 20%.

The next assay addresses S. Aureus MetRS (Staphylococcus aureus, UniProt Q5HII6). The experiment in a line: MetRS inhibition (coupling of radiolabeled methionine to tRNAMet, TCA-precipitable counts). In kind it is biochemical. The following applies: purified MetRS enzyme. An excerpt:
The inhibition of MetRS activity may be monitored through use of in vitro bio-chemical assays through use of purified MetRS protein. Synthesis of a MetRS polypeptide can readily be accomplished through use of any of the various art-known techniques. For instance, a MetRS polypeptide can be synthesized chemically in vitro or recombinant DNA methods which are well known to those skilled in the art can be used to construct expression vectors containing MetRS coding sequences, and appropriate transcriptional/translational control signals. These methods include, for example, in vitro recombinant DNA techniques, synthetic techniques and in vivo recombination/genetic recombination. Alternatively, RNA capable of encoding target gene protein sequences can be chemically synthesized through use of synthesizers, for example.
The compounds of the present invention may also be evaluated for the ability to inhibit MetRS activity through use of known methods that measure the MetRS-dependent coupling of methionine to its cognate tRNA. In the assay, radiolabeled methionine, tRNA^Met and purified MetRS enzyme are incubated under appropriate conditions in the presence and absence of test compound and the amount of TCA-precipitable counts, which reflects the amount of methionine coupled to tRNA^Met, is determined.

Structures are written as SMILES.

Sequence of S. Aureus MetRS (Q5HII6 whole entry): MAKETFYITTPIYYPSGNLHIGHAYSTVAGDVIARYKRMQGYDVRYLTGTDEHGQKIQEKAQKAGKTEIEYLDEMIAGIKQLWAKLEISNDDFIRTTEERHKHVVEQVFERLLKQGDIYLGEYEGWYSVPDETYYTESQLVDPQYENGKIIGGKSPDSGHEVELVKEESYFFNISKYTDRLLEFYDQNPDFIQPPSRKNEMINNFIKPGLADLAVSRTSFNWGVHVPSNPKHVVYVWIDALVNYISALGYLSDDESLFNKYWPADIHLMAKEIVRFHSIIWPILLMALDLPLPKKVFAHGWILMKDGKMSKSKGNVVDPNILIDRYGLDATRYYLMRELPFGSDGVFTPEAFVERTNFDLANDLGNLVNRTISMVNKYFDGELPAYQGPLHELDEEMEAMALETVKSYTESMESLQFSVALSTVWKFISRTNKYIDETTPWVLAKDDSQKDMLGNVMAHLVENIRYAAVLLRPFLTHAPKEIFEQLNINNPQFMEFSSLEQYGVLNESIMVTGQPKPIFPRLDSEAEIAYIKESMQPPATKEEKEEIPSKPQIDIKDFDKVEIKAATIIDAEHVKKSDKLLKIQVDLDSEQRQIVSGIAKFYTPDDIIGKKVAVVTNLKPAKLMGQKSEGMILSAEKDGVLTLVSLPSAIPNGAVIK

What is called MIC is the least concentration at which growth counts as inhibited. Read a low MIC as greater potency. The IC50 is the point on the concentration scale where inhibition reaches its midpoint. Turning to `COc1cc(Cl)c(Oc2cc(NCc3nc4ccccc4[nH]3)nc(N3CCN(C(=O)C4CC4)CC3)n2)cc1OC` [Compound 6.88], the minimum inhibitory concentration (MIC) in the assay with S. aureus is not above 8 µg/mL. The IC50 at S. Aureus MetRS is less than 50 nM.

In turn, `CC(=O)N1CCN(c2nc(NCc3nc4ccccc4[nH]3)cc(Oc3ccc4ncccc4c3Cl)n2)CC1` [Compound 6.150] yielded a minimum inhibitory concentration (MIC) in the assay with S. aureus not above 8 µg/mL. The IC50 on S. Aureus MetRS is less than 50 nM.

Compound `COc1cc(Cl)c(Oc2cc(NCc3nc4ccccc4[nH]3)nc(N3CCN(Cn4ccnc4C)CC3)n2)cc1OC` [Compound 6.143] displayed a minimal inhibitory concentration (MIC) against S. aureus not above 8 µg/mL. The 50% inhibitory concentration (IC50) on S. Aureus MetRS is less than 50 nM. As to `COc1ccc(Oc2cc(N(C)C)nc(NCc3nc4ccccc4[nH]3)n2)c(Cl)c1` [Compound 5.10], the MIC against S. aureus was not above 8 µg/mL. Moreover, at S. Aureus MetRS, the concentration for half-maximal inhibition (IC50) is less than 50 nM. The like results for `COc1cc(Cl)c(Oc2cc(NCc3nc4ccccc4[nH]3)nc(N3CCN(CCCN4CCOCC4)CC3)n2)cc1OC` [Compound 6.94] were, in that order, not above 8 µg/mL and less than 50 nM. `COc1cc(Cl)c(Oc2cc(NCc3nc4ccccc4[nH]3)nc(N3CCOCC3)n2)cc1OC` [Compound 6.86] showed a minimal inhibitory concentration (MIC) in the assay on S. aureus not above 8 µg/mL. Also, the concentration for half-maximal inhibition (IC50) at S. Aureus MetRS is less than 50 nM. The like results for `COc1cc(Cl)c(Oc2cc(NCc3nc4ccccc4[nH]3)nc(N3CCC(CN4CCCC4=O)CC3)n2)cc1OC` [Compound 6.145] were, in that order, not above 8 µg/mL and less than 50 nM.

In the assay with S. aureus, `COc1cc(Cl)c(Oc2cc(NCc3nc4ccccc4[nH]3)nc(N3CCC(N4CCOCC4)CC3)n2)cc1OC` [Compound 6.138] yielded an MIC not above 8 µg/mL. In addition, the IC50 on S. Aureus MetRS is less than 50 nM. The like results for `COc1cc(Cl)c(Oc2cc(NCc3nc4ccccc4[nH]3)nc(N3CCN(CCN4CCCC4)CC3)n2)cc1OC` [Compound 6.142] were, in that order, not above 8 µg/mL and less than 50 nM. The like results for `COc1cc(Cl)c(Oc2cc(NCc3nc4ccccc4[nH]3)nc(N3CCNC(=O)C3)n2)cc1OC` [Compound 6.56] were, in that order, not above 8 µg/mL and less than 50 nM. The like results for `COc1ccc(Oc2cc(NCc3nc4ccccc4[nH]3)nc(N3CCN(C(=O)N(C)C)CC3)n2)c(Cl)c1` [Compound 6.49] were, in that order, not above 8 µg/mL and less than 50 nM.

For the compound `COc1cc(Cl)c(Oc2cc(NCc3nc4ccccc4[nH]3)nc(N3CCN(C(C)=O)CC3)n2)cc1OC` [Compound 6.55], the minimum inhibitory concentration (MIC) against S. aureus is not above 8 µg/mL. In addition, the IC50 at S. Aureus MetRS was less than 50 nM. The like results for `CC1CN(c2cc(Oc3ccc(Cl)cc3Cl)nc(NCc3nc4ccccc4[nH]3)n2)CC(C)N1` (centres unmarked) [Compound 5.28] were, in that order, not above 8 µg/mL and less than 50 nM. As to `COc1cc(Cl)c(Oc2cc(NCc3nc4ccccc4[nH]3)nc(N3CCN(c4ncncn4)CC3)n2)cc1OC` [Compound 6.105], the MIC with S. aureus is not above 8 µg/mL. Further, the IC50 at S. Aureus MetRS is less than 50 nM. The like results for `COc1ccc(Oc2cc(NCc3nc4ccccc4[nH]3)nc(N3CCN(C(C)=O)CC3)n2)c(Cl)c1` [Compound 6.19] were, in that order, not above 8 µg/mL and less than 50 nM. In the assay on S. aureus, `COc1ccc(Oc2cc(NNc3cc(=O)c4ccccc4[nH]3)nc(N(C)C)n2)c(Cl)c1` [Compound 6.06] had a minimum inhibitory concentration (MIC) not above 8 µg/mL. Besides, on S. Aureus MetRS, the 50% inhibitory concentration (IC50) was less than 50 nM. The like results for `COc1ccc(Oc2cc(N3CC(C)NC(C)C3)nc(NCc3nc4ccccc4[nH]3)n2)c(Cl)c1` (centres unmarked) [Compound 5.26] were, in that order, not above 8 µg/mL and less than 50 nM. Regarding `O=C1CN(c2cc(Oc3ccc(Cl)cc3Cl)nc(NCc3nc4ccccc4[nH]3)n2)CCN1` [Compound 5.37], the minimal inhibitory concentration (MIC) with S. aureus is not above 8 µg/mL. In addition, the half-inhibitory concentration (IC50) on S. Aureus MetRS was less than 50 nM. The like results for `COc1ccc(Oc2cc(N3CCN(C(=O)c4ccco4)CC3)nc(NCc3nc4ccccc4[nH]3)n2)c(Cl)c1` [Compound 5.50] were, in that order, not above 8 µg/mL and less than 50 nM.

`COc1ccc(Oc2cc(NCc3nc4ccccc4[nH]3)nc(N3CCN(C(=O)C4CCCO4)CC3)n2)c(Cl)c1` (centres unmarked) [Compound 6.61]: the MIC with S. aureus is not above 8 µg/mL. Further, the concentration for half-maximal inhibition (IC50) on S. Aureus MetRS was less than 50 nM. The compound `COc1cc(Cl)c(Oc2cc(NCc3nc4ccccc4[nH]3)nc(N3CCN(c4nccs4)CC3)n2)cc1OC` [Compound 6.107] gave a minimum inhibitory concentration (MIC) in the assay on S. aureus not above 8 µg/mL. For the same compound, on S. Aureus MetRS, the IC50 is less than 50 nM. As for `COc1ccc(Oc2cc(N3CCN(c4ncccn4)CC3)nc(NCc3nc4ccccc4[nH]3)n2)c(Cl)c1` [Compound 5.70], the minimal inhibitory concentration (MIC) in the assay with S. aureus was not above 8 µg/mL. In addition, the IC50 on S. Aureus MetRS was less than 50 nM. The like results for `COc1ccc(Oc2cc(NCc3nc4ccccc4[nH]3)nc(N3CCN(c4ncccn4)CC3)n2)c(Cl)c1` [Compound 6.45] were, in that order, not above 8 µg/mL and less than 50 nM. As to `COc1ccc(Oc2cc(N3CCC(O)C3)nc(NCc3nc4ccccc4[nH]3)n2)c(Cl)c1` (centres unmarked) [Compound 5.35], the minimum inhibitory concentration (MIC) in the assay on S. aureus is not above 8 µg/mL. As to `COc1ccc(Oc2cc(NCc3nc4ccccc4[nH]3)nc(N3CCNC(=O)C3)n2)c(Cl)c1` [Compound 6.30], in the assay with S. aureus, the MIC is not above 8 µg/mL. Also, the IC50 at S. Aureus MetRS is less than 50 nM.

With `O=C1CN(c2nc(NCc3nc4ccccc4[nH]3)cc(Oc3ccc(Cl)cc3Cl)n2)CCN1` [Compound 6.23], in the assay with S. aureus, the minimal inhibitory concentration (MIC) was not above 8 µg/mL. The IC50 on S. Aureus MetRS was less than 50 nM. In the assay with S. aureus, `COc1cc(Cl)c(Oc2cc(NCc3nc4ccccc4[nH]3)nc(N3CCN(C(=O)N4CCOCC4)CC3)n2)cc1OC` [Compound 6.134] showed a minimal inhibitory concentration (MIC) not above 8 µg/mL. The IC50 at S. Aureus MetRS was less than 50 nM. The like results for `COc1ccc(Oc2cc(N3CCOCC3)nc(NCc3nc4ccccc4[nH]3)n2)c(Cl)c1` [Compound 5.07] were, in that order, not above 8 µg/mL and less than 50 nM.

`COc1cc(Cl)c(Oc2cc(NCc3nc4ccccc4[nH]3)nc(N3CCN(c4ccncc4)CC3)n2)cc1OC` [Compound 6.95] came in with a minimal inhibitory concentration (MIC) in the assay on S. aureus not above 8 µg/mL. Also, at S. Aureus MetRS, the IC50 was less than 50 nM. `COc1ccc(Oc2cc(N3CCCC3CO)nc(NCc3nc4ccccc4[nH]3)n2)c(Cl)c1` (centres unmarked) [Compound 5.51] displayed an MIC against S. aureus not above 8 µg/mL. The IC50 on S. Aureus MetRS was less than 50 nM.

`COc1cc(Cl)c(Oc2cc(NCc3nc4ccccc4[nH]3)nc(N3CCN(CCN4CCOCC4)CC3)n2)cc1OC` [Compound 6.140] displayed an MIC with S. aureus not above 8 µg/mL. Moreover, the IC50 on S. Aureus MetRS was less than 50 nM.

As to `CCN(C(C)=O)C1CCN(c2nc(NCc3nc4ccccc4[nH]3)cc(Oc3ccc(OC)cc3Cl)n2)C1` (centres unmarked) [Compound 6.62], the MIC against S. aureus is not above 8 µg/mL. Besides, the 50% inhibitory concentration (IC50) on S. Aureus MetRS is less than 50 nM. On to `COc1ccc(Oc2cc(-n3cnc(C)c3)nc(NCc3nc4ccccc4[nH]3)n2)c(Cl)c1` [Compound 5.53], for which, in the assay on S. aureus, the minimum inhibitory concentration (MIC) is not above 8 µg/mL. `COc1ccc(Oc2cc(NCc3nc4ccccc4[nH]3)nc(N3CCN(C(=O)C4CC4)CC3)n2)c(Cl)c1` [Compound 6.48] showed an MIC against S. aureus not above 8 µg/mL. For the same compound, the 50% inhibitory concentration (IC50) on S. Aureus MetRS was less than 50 nM. The like results for `COc1ccnc(N2CCN(c3nc(NCc4nc5ccccc5[nH]4)cc(Oc4cc(OC)c(OC)cc4Cl)n3)CC2)n1` [Compound 6.96] were, in that order, not above 8 µg/mL and less than 50 nM. The like results for `COc1cc(Cl)c(Oc2cc(NCc3nc4ccccc4[nH]3)nc(N3CCN(C(=O)CNc4nccs4)CC3)n2)cc1OC` [Compound 6.126] were, in that order, not above 8 µg/mL and less than 50 nM. The like results for `COc1cc(Cl)c(Oc2cc(NCc3nc4ccccc4[nH]3)nc(N3CCN(c4ccccn4)CC3)n2)cc1OC` [Compound 6.91] were, in that order, not above 8 µg/mL and less than 50 nM.

Take `COc1cc(Cl)c(Oc2cc(NCc3nc4ccccc4[nH]3)nc(N3CCCN(C(C)=O)CC3)n2)cc1OC` [Compound 6.63]: the MIC with S. aureus was not above 8 µg/mL. Also, the half-maximal inhibitory concentration (IC50) on S. Aureus MetRS is less than 50 nM. The like results for `COc1cc(Cl)c(Oc2cc(NCc3nc4ccccc4[nH]3)nc(N3CCN(C(=O)N4CCCC4)CC3)n2)cc1OC` [Compound 6.144] were, in that order, not above 8 µg/mL and less than 50 nM.

In turn, `COc1cc(Cl)c(Oc2cc(NCc3nc4ccccc4[nH]3)nc(N3CCN(c4ncccn4)CC3)n2)cc1OC` [Compound 6.90] came in with a minimum inhibitory concentration (MIC) in the assay with S. aureus not above 8 µg/mL. For the same compound, the IC50 on S. Aureus MetRS is less than 50 nM. The like results for `COc1cc(Cl)c(Oc2cc(NCc3nc4ccccc4[nH]3)nc(N3CCN(CCn4ccnc4)CC3)n2)cc1OC` [Compound 6.113] were, in that order, not above 8 µg/mL and less than 50 nM. Turning to `COc1cc(Cl)c(Oc2cc(NCc3nc4ccccc4[nH]3)nc(N(C)C)n2)cc1OC` [Compound 6.83], the minimal inhibitory concentration (MIC) in the assay on S. aureus is not above 8 µg/mL. Also, the IC50 on S. Aureus MetRS was less than 50 nM. The like results for `COc1cc(Cl)c(Oc2cc(NCc3nc4ccccc4[nH]3)nc(N3CCN(c4cnccn4)CC3)n2)cc1OC` [Compound 6.93] were, in that order, not above 8 µg/mL and less than 50 nM. The like results for `COc1cc(Cl)c(Oc2cc(NCc3nc4ccccc4[nH]3)nc(N3CCN(C(=O)N(C)C)CC3)n2)cc1OC` [Compound 6.89] were, in that order, not above 8 µg/mL and less than 50 nM.

The values above are taken from patent publication US20080194545A1, “ANTIMICROBIAL COMPOSITIONS AND METHODS OF USE” (TRIUS THERAPEUTICS, priority 2007, published 2008).
